This passage reports cytotoxicity results from ChEMBL document CHEMBL3507680, “University of Dundee, Gates Library screen for HepG2 cell viability”.

This data set in a line: Human HepG2 cell viability assay in 384 well format. Type of data set: toxicity, cell-based. Also noted: dose 125 nL, time 70.5 hour; concentration not given beside the values. Particulars: HepG2 cells, read-out: Inhibition.

Take `Cc1ccncc1C(=O)N1CCCC(C(=O)CCc2ccccc2)C1` (centres undefined): the cytotoxicity at 70.5 h was -7.97%. The figure for `Cc1c(Cl)c(C(=O)N2CC[C@H](N3CCOCC3)[C@H](CCCO)C2)nn1C` is 3.03%. `CN1CCCC2(CC1)CCN(C(=O)CCc1ccccc1O)CC2`: the cytotoxicity at 70.5 h is 6.16%. The figure for `Cc1cnn(C2(C(=O)O)CCN(Cc3oc4ccccc4c3C)CC2)c1` is -8.33%; for `CC(C)N1CC(C(=O)NCCc2csc(-c3ccncc3)n2)CC1=O` (centres undefined) it is 34.8%.

In the case of `CNC(=O)CC1CCN(Cc2nc(-c3ccc(SC)cc3)oc2C)CC1`, the cytotoxicity at 70.5 h was -6.83%. The figure for `CN(C)C(=O)CN1C[C@@H]2CC[C@H](C1)N(Cc1cc(F)ccc1F)C2` is 7.45%; for `CSc1nccc(N2CCN(C)C3(CCNC(=O)CC3)C2)n1` (centres undefined) it is -5.4%; for `CCCn1nc(C)c(CNC(=O)C2COc3c(cccc3OC)C2)c1C` (centres undefined) it is -10.5%.

Take `COc1cccc([C@@H]2CCN(Cc3ccc4ccccc4n3)C[C@H]2O)c1`: the cytotoxicity at 70.5 h was -8.06%. The figure for `Cc1nccn1CCC1CCCCN1C(=O)c1ccc2[nH]nnc2c1` (centres undefined) is -1.82%. The value for `COCCNS(=O)(=O)c1cccc2c1CN(C(=O)c1ccccc1)CC2` was 14.6%. As to `CC(C)CN1CCN(Cc2nc3ccccc3[nH]2)[C@H]2CS(=O)(=O)C[C@H]21`, the cytotoxicity at 70.5 h is -11.1%. With `CC(c1ccccc1)n1c(SCC(=O)O)nnc1-c1ccccc1Cl` (centres undefined), the cytotoxicity at 70.5 h is -4%. For the molecule `CC(C)C(=O)NCC(=O)N(C)C1CCCN(C2Cc3ccccc3C2)C1` (centres undefined), the cytotoxicity at 70.5 h is -10.4%. The value for `CCS(=O)(=O)N1CCC(c2nnc(CN3CCCC3)n2C2CC2)CC1` was -11.4%; that for `Cc1ccccc1C(=O)N1CCOC2(CNCCOC2)C1` (centres undefined) was -4.46%; that for `O=C(CCCc1ccc(F)cc1)N1C[C@@H](CN2CCOCC2)[C@@H](CO)C1` was -2.56%. The figure for `Cc1cc(-c2nn(C)c(Cl)c2CN2CCOCC(O)C2)no1` (centres undefined) is -11.6%; for `CN(CC1(O)CCCN(CCC2CCCCC2)C1=O)C1CCOCC1` (centres undefined) it is -5.64%; for `COc1cccn(CC(=O)N(C)Cc2ccoc2)c1=O` it is 1.59%. As to `CC(CN1CCC2(CC1)c1nc[nH]c1CCN2S(C)(=O)=O)C(F)(F)F` (centres undefined), the cytotoxicity at 70.5 h is -1.86%. The value for `CCOCCOc1ccccc1C(=O)N1CCCC(c2ncc[nH]2)C1` (centres undefined) was -5%; that for `O=C(c1cccnc1)N1C[C@@H]2CC[C@H](C1)N(Cc1cccc(Cl)c1F)C2` was -1.34%; that for `COCCN(C)CCN1CC2(CCN(C3CCCOC3)CC2)OC1=O` (centres undefined) was 3.4%.

On to `Cc1ccc2c(c1)c(CNC(=O)C1CCN(C(C)C)CC1)nn2C`, for which the cytotoxicity at 70.5 h was -14.4%. The figure for `CN1CC(c2ccccc2)CC12CCN(C(=O)c1cncc(Cl)c1)CC2` (centres undefined) is -8.59%; for `CCn1cc(CN2CCC(c3nnc(CN(C)C)n3CC)CC2)cn1` it is 10.9%; for `COCCN1CCCC(c2nc3c([nH]2)CC(C)(C)CNC3=O)C1` (centres undefined) it is -3%. The figure for `Cc1nonc1CN(C)CC1(O)CCCN(CCC2CCCCC2)C1=O` (centres undefined) is 2.77%; for `CN(C)C(=O)N1CCN(C(=O)CCc2ccccc2)[C@H]2CS(=O)(=O)C[C@H]21` it is -5.59%.

For the molecule `CSCCNC(=O)c1ccc(OC2CCN(CC(C)(C)C)CC2)c(Cl)c1`, the cytotoxicity at 70.5 h was -7.8%. For the molecule `Cc1cc(C)nc(CCNC(=O)C(c2ccc(F)cc2)N(C)C)n1` (centres undefined), the cytotoxicity at 70.5 h came to 30.5%. The value for `CN(C)C(=O)CCCNC(=O)C(c1cccc(F)c1)N(C)C` (centres undefined) was 3.05%; that for `Cc1cc(-c2nn(C)c(Cl)c2CN2Cc3ccccc3C(O)C2)no1` (centres undefined) was -11.3%.

On to `COc1cccc2c1OCC(C(=O)N(C)CCCc1cnn(C)c1)C2` (centres undefined), for which the cytotoxicity at 70.5 h is -1.77%. The figure for `O=C(c1cccnc1)N1C[C@@H]2CC[C@H](C1)N(Cc1cc(F)ccc1F)C2` is -5.88%; for `CC(C)c1cc(N2CCN(c3ccc(O)cc3)CC2)n2nccc2n1` it is -11.5%; for `CCNC(=O)CCN1CCC(c2cc(N3CCOCC3)nc(C)n2)CC1` it is -7.37%. The value for `COc1cccc2c1OCC(CNC(=O)CNC(N)=O)C2` (centres undefined) was -4.9%; that for `COc1nc(C)c(C(=O)N(C)Cc2nc(-c3ccccn3)no2)s1` was 5.05%; that for `O=C(c1ccccn1)N1CCCC(c2nccn2CC2CCC2)C1` (centres undefined) was 18.9%. For the molecule `CCCC(C)CN1CCC(n2cc(CCCO)nn2)CC1` (centres undefined), the cytotoxicity at 70.5 h was -4.4%. `CCOCCn1c(=O)[nH]c2cc(C(=O)N(C)CCc3cn[nH]c3)ccc21`: the cytotoxicity at 70.5 h was 18.1%.

With `CC(C)n1ccnc1C1CCN(C(=O)C2COc3ccccc3O2)CC1` (centres undefined), the cytotoxicity at 70.5 h was -9.98%.

Regarding `Cc1nnsc1C(=O)N1CCC2(CC1)c1nc[nH]c1CCN2CC(C)C`, the cytotoxicity at 70.5 h was -2.79%. `c1ccc(OCC2CC2)c(CNC2CCc3ncnn3C2)c1` (centres undefined): the cytotoxicity at 70.5 h was -7.19%. The figure for `c1cncc(COc2ccccc2CNC2CCc3ncnn3C2)c1` (centres undefined) is -5.98%; for `COc1cc(C)nc(N2CCN(C(=O)CN(C)C(C)C)CC2)n1` it is 29%. For the molecule `NC(=O)c1cccc(CN2CCc3c(ncn3C3CC3)C2)c1`, the cytotoxicity at 70.5 h was 23.7%. The value for `CN(Cc1noc(C2CC2)n1)C1CCN(Cc2cccc(F)c2F)C1` (centres undefined) was 15.9%; that for `CN(Cc1cccnc1)C1CCCN(Cc2noc(C3CC3)n2)C1` (centres undefined) was 24.6%.

In the case of `CCCc1cc(C(=O)NCCN2CCCS2(=O)=O)[nH]n1`, the cytotoxicity at 70.5 h was -7.48%. The figure for `Cc1ccc(-c2cc(C(=O)NCCN3CCCS3(=O)=O)[nH]n2)o1` is -14.9%; for `OCCN1CCC(CNCc2ccccc2OC(F)(F)F)CC1` it is -7.57%; for `COc1cc(C)nc(N2CCN(C(=O)CSC)CC2)n1` it is -11.8%.

In the case of `O=C1C(NCc2nnc3n2CCCC3)CCN1c1ccccc1Cl` (centres undefined), the cytotoxicity at 70.5 h is 9.28%.

`O=C(NCc1nn(-c2ccccc2)c2c1CCC2)N1CCCC(O)C1` (centres undefined): the cytotoxicity at 70.5 h is -12.1%. The value for `O=C(NCc1nn(-c2ccccc2)c2c1CCC2)NC1CCC(O)CC1` (centres undefined) was -8.01%. The value for `NC(=O)NCCC(=O)NCc1nn(-c2ccccc2)c2c1CCC2` was -16.4%; that for `Cc1noc(C)c1CNC(=O)N1CCC(Cc2cnn(C)c2)C1` (centres undefined) was -3.98%; that for `CC(O)CN1CCC(CNCc2cccc(OC(F)(F)F)c2)CC1` (centres undefined) was 5.77%. The figure for `CCOc1ccccc1CNCC1CCN(CC(C)O)CC1` (centres undefined) is -1.15%; for `O=C(NCc1cc[nH]n1)NCC(c1ccccc1)N1CCOCC1` (centres undefined) it is 8.77%; for `Cc1cnn(CC2CCCCN2Cc2cc(C)no2)c1` (centres undefined) it is -8.3%. As for `CCc1nccn1C1CCCN(C(=O)CCOCC(F)(F)F)C1` (centres undefined), the cytotoxicity at 70.5 h is -14%. Take `CCN(CC)CC(=O)N1CCN(c2nc(C)cc(OC)n2)CC1`: the cytotoxicity at 70.5 h is -0.607%. The figure for `Cc1cnn(CC2CCCN2Cc2cc(C)on2)c1` (centres undefined) is -4.61%; for `Cc1cc(C)n(CC2CCCN2CCCS(C)(=O)=O)n1` (centres undefined) it is -7.95%; for `CCn1ccnc1CN1CCCN(C(=O)c2scnc2C)CC1` it is -11.5%.

With `COc1ccc(NC(=O)NC(C)Cc2ccco2)cn1` (centres undefined), the cytotoxicity at 70.5 h is -11.4%. The figure for `CC(Cc1ccco1)NC(=O)Nc1ccc(N(C)C)nc1` (centres undefined) is -7.91%; for `CN1CCN(c2cc(CNC(=O)c3ccc(Cl)o3)ccn2)CC1` it is -3.02%.

On to `NC(=O)Cn1cc(NC(=O)N2CCN(c3ccc(F)cc3)CC2)cn1`, for which the cytotoxicity at 70.5 h amounted to 8.67%. The value for `NC(=O)Cn1cc(NC(=O)N2CCCCCC2)cn1` was -11.1%; that for `N#Cc1ccsc1NC(=O)CN1CCOC(Cn2cccn2)C1` (centres undefined) was 11%; that for `Cc1cnn(CC2CN(CC(=O)Nc3cc(C)no3)CCO2)c1` (centres undefined) was -9.53%. The value for `Cc1nc2cc(=O)[nH]n2c(C)c1CC(=O)NCc1ccoc1` was -1.36%; that for `CCc1ccsc1C(=O)N1CCCN(Cc2nccn2CC)CC1` was 5.97%. The value for `Cc1n[nH]c(C2CN(C(=O)CCc3cscn3)CCO2)n1` (centres undefined) was -1.63%; that for `CC(NS(C)(=O)=O)C(=O)N1CCCN(Cc2cscn2)CC1` (centres undefined) was -1.86%.

For the molecule `Cc1nc(C)n(CC2CCCN2CCc2ccncc2)n1` (centres undefined), the cytotoxicity at 70.5 h turned out to be 18.1%. The value for `CC(OCC1CC1)C(=O)N1CCCN(Cc2cscn2)CC1` (centres undefined) was 1.88%. The figure for `CNc1cc(N2CCCC2CNCc2cnc(C)s2)ncn1` (centres undefined) is 2.89%; for `CNc1cc(N2CCCC2CNCc2cscn2)ncn1` (centres undefined) it is 1.05%.

On to `CCc1nnsc1C(=O)N1CCCC(n2nc(C)nc2C)C1` (centres undefined), for which the cytotoxicity at 70.5 h was -3.17%. The figure for `Cc1ncc(C(=O)N2CCCC(n3nc(C)nc3C)C2)c(C(C)C)n1` (centres undefined) is -4.64%; for `CCc1ncncc1C(=O)N1CCCC(n2nc(C)nc2C)C1` (centres undefined) it is -1.23%; for `Cc1cc(C)n(CC2CCCN2CCc2ccccn2)n1` (centres undefined) it is 1.45%. The figure for `Cc1ccc(C)n1C(C)C(=O)N1CCCN(Cc2cscn2)CC1` (centres undefined) is -0.61%; for `Cc1cnc(CN2CCOC(Cn3nc(C)cc3C)C2)cn1` (centres undefined) it is 13.7%; for `Cc1nc(C2CCCN2CC(=O)NCCOc2ccc(F)cc2)no1` (centres undefined) it is 47.6%. The figure for `O=C(NCc1ccncc1)Nc1cc(C(F)(F)F)c[nH]c1=O` is -2.18%; for `Cc1cc(C)c(CNC(=O)NCC2COCCO2)c(=O)[nH]1` (centres undefined) it is -4.78%. For `Cn1cc(CCNCc2cc(Cl)c3c(c2)OCCO3)cn1`, the cytotoxicity at 70.5 h was -2.02%. With `Cc1cc(C)n(CC2CN(Cc3nnc(C)o3)CCO2)n1` (centres undefined), the cytotoxicity at 70.5 h was -3.59%.

Consider `CCc1nnc2n1CCN(C(=O)c1cc(Cl)c[nH]1)C2`, for which the cytotoxicity at 70.5 h is -1.1%. The value for `O=C(c1ccccc1N1CCOCC1)N1CCCC(n2ccnc2)C1` (centres undefined) was -6.72%; that for `Cc1ccc(NC2CCN(C(=O)c3ccc(C)o3)CC2)nn1` was -0.446%.
